Where two headings read alike, the source gives them in different places. Where only a bound is given, the exact number is not on record here.

The subject of one data set is Caco-2 cells. The format is in vitro ADME. As to conditions: polysorbate 80 added to a solution of compound A in the cell culture medium. The source says:
This line is conventionally used for evaluating the ability of compounds to permeate the epithelium (Crit. Rev. Ther. Drug Carrier System. 1991, 8 (4), 105-330).
2. Evaluation of the Intestinal Transepithelial Passage of Compound A
Caco-2 cells are inoculated onto microporous polycarbonate filters covered with collagen. The cellular monolayer formed on the filter then makes it possible to separate an apical compartment (imitating the intestinal lumen) from a basal compartment (imitating the blood circulation).
The composition containing the compound to be studied is then placed on the apical side and the passage of this compound, dispersed or solubilized in Hank's medium, through this cellular barrier is evaluated by measuring the kinetics of its appearance on the basal side. This aqueous medium, of pH 6.5, has the following composition: NaCl=8.0 g/l; KCl=0.4 g/l; CaCl2 =0.19 g/l; MgCl2 =0.1 g/l; MgSO4 =0.1 g/l; Na2 HPO4 =0.09 g/l; KH2 PO4 =0.06 g/l; NaHCO3 =0.35 g/l; glucose=1 g/l; phenol red=0.01 g/l. […]
Various non-ionic surfactants or agents said to improve absorption, such as a C8 -C10 fatty acid or one of its derivatives, were added to the formulation described above, placed in Hank's medium, and the relative rate of intestinal transepithelial passage of compound A in these formulations was measured.

A short description of data set [1]: Solubility of compound A in water at the saturation point, 24 h, room temperature, UV spectrometry. Conditions: for solubility at 24 h: water, room temperature, read-out: Concentration of compound A (solubility in water at saturation). The format is physicochemical. The source says:
1. Solubility of Compound A

A short description of the next data set: in vivo. Conditions: rat, 0.6% aqueous solution of compound A in methyl cellulose, read-out: Estimated absorption. The source says:
In this model, the permeability to compound A dissolved in dimethyl sulfoxide (DMSO) is 3.4.10^-7 cm/s. Furthermore, studies performed on the rat with a 0.6% aqueous solution of compound A in methyl cellulose have shown that its estimated absorption is less than 1%.

Data set [2] can be described thus: Solubility in different media / solvents. The format is physicochemical. Conditions: dmso, organic solvent or mixture; read-out: Solubility in dimethyl sulfoxide (DMSO).

Take `CC(C)Oc1cccc(CC(=O)N2CCC[C@](CC[N+]34CCC(c5ccccc5)(CC3)CC4)(c3ccc(Cl)c(Cl)c3)C2)c1` [compound A, (S)-1-{2-[3-(3,4-dichlorophenyl)-1-(3-iso-propoxyphenylacetyl)piperidin-3-yl]ethyl}-4-phenyl-1-azoniabicyclo[2.2.2]octane]: in the data set on Caco-2 cells, the “Effect of addition of polysorbate 80 on transepithelial passage” value is listed as “substantially improves the transepithelial passage”. Further, in data set [1] (pH 1 to 9), the “Solubility in water, dependence on pH” value is “low and not dependent on the pH”. Moreover, the solubility at 24 h is 0.31 mg/mL in data set [1] (pH 1); 0.31 mg/mL in data set [1] (pH 3); 0.31 mg/mL in data set [1] (pH 5); 0.29 mg/mL in data set [1] (pH 7); 0.31 mg/mL in data set [1] (pH 9). Further, the Fa in the data set “in vivo” is less than 1%. Further, the solubility in data set [2] was 168 mg/mL.

The values above are taken from patent publication US6303626A, “Pharmaceutical formulations in dry form for the oral administration of a cyclic quaternary ammonium compound” (Sanofi-Synthelabo, priority 1997, dated 2001).
